Patent US20260232682A1, “GSPT1 DEGRADER COMPOUNDS” (Captor Therapeutics S.A., priority 2023, published 2026)

Experiments:
[1] = tested on: KG-1 cells; test: Cell viability CTG assay, KG-1; assay type: cell-based; details: Homo sapiens, 72 hours treatment, read-out: KG-1 Geomean absolute IC50
Experimental: (§1) The effect of selected compounds of the invention on cell viability in various cell lines was investigated using the Cell Viability—CTG Assay Protocol below.
(§2) Hep3B, Hep3B GSPT1 G575N mut., Kelly, KG-1 and NCI-H929 cells were maintained in respective cell medium (see Table 5, below). Cells were seeded in appropriate density (see Table 6, below) onto 384-white plates (Greiner, cat. no. 781080 or 781098) and incubated overnight (Hep3B, Hep3B GSPT1 G575N, Kelly) or treated with compounds immediately after seeding (KG-1, NCI-H929). Tested compounds and DMSO (vehicle control) were dispensed to the plates using Echo 555 Liquid Handler. 12 data-point compound titration curve with concentrations ranging from 50 μM to 1 nM was used. Final DMSO concentration was kept constant at 0.25% v/v across the assay plate. After 72 h incubation (37° C., 5% CO2), cell viability was assessed using CellTiter-Glo® assay kit (Promega, cat. no G7573). Luminescence was measured using CLARIOstar multimode plate reader (BMG LABTECH). The raw data (the relative luminescence unit values, RLU) were uploaded under the relevant protocol and analysed in CDDVault data management platform. Luminescence (RLU) values were normalized to the controls, and reported absolute IC50 values were calculated in CDDVault using non-linear regression and appropriate equations.

[2] = tested on: Kelly cells; test: Cell viability CTG assay, Kelly; assay type: cell-based; details: 72 hours treatment, read-out: Kelly Geomean absolute IC50
Experimental: as §1, §2

[3] = tested on: NCI-H929 cells; test: Cell viability CTG assay, NCI-H929; assay type: cell-based; details: Homo sapiens, 72 hours treatment, read-out: NCI-H929 Geomean absolute IC50
Experimental: as §1, §2

[4] = tested on: Hep3B cells; test: Cell viability CTG assay, Hep3B; assay type: cell-based; details: Homo sapiens, 72 hours treatment, read-out: Hep3B Geomean absolute IC50
Experimental: as §1, §2

[5] = tested on: Hep3B GSPT1 G575N mut. cells; test: Cell viability CTG assay, Hep3B GSPT1 G575N mut.; assay type: cell-based; details: Homo sapiens, 72 hours treatment, read-out: Hep3B GSPT1 G575N Geomean absolute IC50
Experimental: as §1, §2

[6] = Chemical stability in MV-4-11 medium; details: 37° C.
Experimental: Next, 500 μL of each solution was transferred to the 96-deep-well plate. Three replicates for each compound were performed. Plate was afterwards incubated at 37° C. with shaking (220 rpm). 50 μL of sample were withdrawn for the each timepoint (0, 1, 3, 6, 24, 48, 72, and 168 hours) and immediately mixed with 50 μL of acetonitrile. Next, samples were centrifuged at 3900 rpm, 10° C. for 20 minutes. 40 μL of supernatant was diluted with 120 μL of acetonitrile containing internal standard (IS) (10 μM), mixed, and analyzed by LC-MS/MS.
Thermo Fisher Scientific Altis+ coupled with a Vanquish system were used for UHPLC-MS/MS analysis. Analytes were separated on a Kinetex XB-C18 2.6 μm, 50×2.1 mm column, using gradient of water with 0.1% (v/v) formic acid (solvent A) and acetonitrile with 0.1% (v/v) formic acid (solvent B): 0.0 min 5% B, 0.5 min 5% B, 1.0 min 70% B, 3.0 min 95% B, 3.5 min 95% B, 3.7 min 5% B, 5 min 5% B. The mobile phase flow rate was set to 0.3 mL/min and the column was kept in 40° C. 1 μL of samples were injected. The MS/MS analysis was performed using SRM mode in positive ionization. Source parameters were set as follow: Ion Source Type H-ESI, Spray Voltage 3800 V, Sheath Gas 50 Arb, Aux Gas 10 Arb, Sweep Gas 1 Arb, Ion Transfer Tube Temp 325° C., Vaporizer Temp 350° C., Collision Gas Pressure 1.5 mTorr, Q1/Q3 Resolution (FWHM) 0.7. Three transitions were monitored for each analyte and for the internal standard:
Quantitation was based on the peak area ratio between the test compound and IS. The amount of compound remaining in the sample was calculated as follow:
The slope of logarithmic curve of percent remaining versus time has been used for calculation of half-life (t_half). First, the elimination constant (k) was calculated using the equation:
Next, half-life (t_half) was calculated using equation:

SMILES	IC50 [1]	IC50 [2]	IC50 [3]	IC50 [4]	IC50 [5]	% remaining at 24 hrs ([6]; concentration 1 μM)	t_half [hours] ([6]; concentration 1 μM)	% remaining at 24 hrs ([6]; concentration 10 μM)	t_half [hours] ([6]; concentration 10 μM)
Cc1ccc(NC(=O)OCc2ccc3nc(C)c(C4CCC(=O)NC4=O)cc3c2)cc1Cl (stereo not shown) [Compound 5, (3-(2,6-dioxopiperidin-3-yl)-2-methylquinolin-6-yl)methyl (3-chloro-4-methylphenyl)carbamate]	≤ 0.1 µM	≤ 0.1 µM	≤ 0.1 µM	≤ 0.1 µM	> 5 µM				
Cc1ccc(NC(=S)NCc2ccc3cc(C4CCC(=O)NC4=O)c(C)nc3c2)cc1Cl (stereo not shown) [Compound 2, 1-(3-chloro-4-methylphenyl)-3-((3-(2,6-dioxopiperidin-3-yl)-2-methylquinolin-7-yl)methyl)thiourea]	1 to 5 µM	1 to 5 µM	> 5 µM	> 5 µM	> 5 µM				
Cc1ccc(NC(=O)OCc2ccc3cc(C4CCC(=O)NC4=O)c(C)nc3c2)cc1Cl (stereo not shown) [Compound 4, (3-(2,6-dioxopiperidin-3-yl)-2-methylquinolin-7-yl)methyl (3-chloro-4-methylphenyl)carbamate]	≤ 0.1 µM	≤ 0.1 µM	≤ 0.1 µM	≤ 0.1 µM	> 5 µM	a (a≥50%)	A (A≥15 hrs)	b (25%≤b<50%)	A (A≥15 hrs)
